Measured values as given in ChEMBL document CHEMBL2380242, “Discovery of novel orally bioavailable GPR40 agonists” (Bioorg Med Chem Lett, 2013).
Activity calls are given as the source filed them. No cut-off for these calls is given here.

Assays:
[1] = Cmax in cynomolgus monkey at 6 mg/kg, po; type: ADME, organism-based, Macaca fascicularis; parameters: dose 6 mg/kg, route oral; details: in vivo
[2] = Plasma clearance in rat at 5 mg/kg, po; type: ADME, organism-based; parameters: dose 5 mg/kg, route oral
[3] = target: T1, Free fatty acid receptor 1 (Homo sapiens, UniProt O14842); experiment: Agonist activity at human GPR40 transfected in CHO cells by calcium flux assay relative to TAK-875; type: functional, cell-based
[4] = AUC in rat at 5 mg/kg, po; type: ADME, organism-based; parameters: dose 5 mg/kg, route oral; details: plasma
Rattus norvegicus = experiment: Volume of distribution in rat at 5 mg/kg, po; type: ADME, organism-based; parameters: dose 5 mg/kg, route oral; details: in vivo
[5] = Half life in beagle dog at 1 mg/kg, po; type: ADME, organism-based, Canis lupus familiaris; parameters: dose 1 mg/kg, route oral; details: in vivo
Cynomolgus monkey = experiment: Volume of distribution in cynomolgus monkey at 6 mg/kg, po; type: ADME, organism-based, Macaca fascicularis; parameters: dose 6 mg/kg, route oral; details: in vivo
[6] = target: T1, Free fatty acid receptor 1; experiment: Agonist activity at human GPR40 transfected in CHO cells by calcium flux assay; type: functional, cell-based
[7] = Cmax in beagle dog at 1 mg/kg, po; type: ADME, organism-based, Canis lupus familiaris; parameters: dose 1 mg/kg, route oral; details: in vivo
[8] = AUC in beagle dog at 1 mg/kg, po; type: ADME, organism-based, Canis lupus familiaris; parameters: dose 1 mg/kg, route oral; details: plasma
[9] = Half life in cynomolgus monkey at 6 mg/kg, po; type: ADME, organism-based, Macaca fascicularis; parameters: dose 6 mg/kg, route oral; details: in vivo
[10] = Half life in rat at 5 mg/kg, po; type: ADME, organism-based; parameters: dose 5 mg/kg, route oral; details: in vivo
[11] = AUC in cynomolgus monkey at 6 mg/kg, po; type: ADME, organism-based, Macaca fascicularis; parameters: dose 6 mg/kg, route oral; details: plasma
[12] = target: Free fatty acid receptor 1 (Rattus norvegicus) (UniProt Q8K3T4); experiment: Agonist activity at GPR40 in rat INS-1 cells assessed as glucose-stimulated insulin secretion relative to TAK-875; type: cell-based; details: INS1
[13] = Cmax in rat at 5 mg/kg, po; type: ADME, organism-based; parameters: dose 5 mg/kg, route oral; details: in vivo
Mus musculus [14] = experiment: Antidiabetic activity in high fat feasted ICR mouse assessed as inhibition of blood glucose excursion at 50 mg/kg, po administered 15 mins prior to dextrose challenge measured for 120 mins by OGTT relative to control; type: functional
[15] = Oral bioavailability in rat at 5 mg/kg; type: ADME, organism-based; details: in vivo
[16] = Plasma clearance in cynomolgus monkey at 6 mg/kg, po; type: ADME, organism-based, Macaca fascicularis; parameters: dose 6 mg/kg, route oral
Rhesus monkey [17] = experiment: Antidiabetic activity in obese type 2 diabetic rhesus monkey model assessed as inhibition of blood glucose excursion at 6 mg/kg, po administered 1 to 2 hrs prior to dextrose challenge measured for 60 mins by IVGTT relative to control; type: functional; details: Macaca mulatta
[18] = target: T2, Free fatty acid receptor 4 (Homo sapiens) (UniProt Q5NUL3); experiment: Agonist activity at GPR120 (unknown origin) up to 10 uM
T2 sequence (whole entry): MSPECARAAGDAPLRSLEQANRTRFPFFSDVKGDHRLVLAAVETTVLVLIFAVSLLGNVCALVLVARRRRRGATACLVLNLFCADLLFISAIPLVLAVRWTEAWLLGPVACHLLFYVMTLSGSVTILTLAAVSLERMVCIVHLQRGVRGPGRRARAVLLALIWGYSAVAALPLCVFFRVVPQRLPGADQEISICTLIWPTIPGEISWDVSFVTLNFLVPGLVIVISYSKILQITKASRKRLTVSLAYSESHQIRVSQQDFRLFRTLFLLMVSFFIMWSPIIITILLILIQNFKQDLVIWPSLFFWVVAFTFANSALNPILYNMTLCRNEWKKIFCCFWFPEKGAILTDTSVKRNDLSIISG

[19] = Lipophilicity, log D of the compound; type: physicochemical; details: octanol/water
[20] = target: T3, Free fatty acid receptor 2 (Homo sapiens) (UniProt O15552); experiment: Agonist activity at GPR43 (unknown origin) up to 10 uM
T3 sequence (whole entry): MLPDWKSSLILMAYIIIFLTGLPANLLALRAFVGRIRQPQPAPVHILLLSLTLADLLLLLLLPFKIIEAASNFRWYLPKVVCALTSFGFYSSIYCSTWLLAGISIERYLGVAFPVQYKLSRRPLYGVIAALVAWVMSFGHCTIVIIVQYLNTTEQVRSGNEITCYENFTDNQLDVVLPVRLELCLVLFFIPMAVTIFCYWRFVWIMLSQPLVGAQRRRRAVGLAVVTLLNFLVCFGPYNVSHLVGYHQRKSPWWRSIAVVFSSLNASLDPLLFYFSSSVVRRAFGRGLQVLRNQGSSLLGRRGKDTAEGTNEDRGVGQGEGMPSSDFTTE

[21] = target: Free fatty acid receptor 1 (Rattus norvegicus, UniProt Q8K3T4); experiment: Agonist activity at GPR40 in rat INS-1 cells assessed as glucose-stimulated insulin secretion; type: cell-based, INS1
[22] = target: T4, Free fatty acid receptor 3 (Homo sapiens) (UniProt O14843); experiment: Agonist activity at GPR41 (unknown origin) up to 10 uM
T4 sequence (whole entry): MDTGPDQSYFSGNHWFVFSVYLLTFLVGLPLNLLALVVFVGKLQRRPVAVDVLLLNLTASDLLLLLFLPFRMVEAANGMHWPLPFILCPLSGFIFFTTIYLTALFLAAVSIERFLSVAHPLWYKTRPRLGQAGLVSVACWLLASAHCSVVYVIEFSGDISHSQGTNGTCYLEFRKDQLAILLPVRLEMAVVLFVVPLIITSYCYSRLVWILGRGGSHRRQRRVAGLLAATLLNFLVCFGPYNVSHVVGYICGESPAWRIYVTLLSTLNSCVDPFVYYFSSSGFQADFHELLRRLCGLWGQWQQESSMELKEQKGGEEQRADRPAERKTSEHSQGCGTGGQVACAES

[23] = Inhibition of CYP450 (unknown origin); type: ADME, Homo sapiens
[24] = Plasma clearance in beagle dog at 1 mg/kg, po; type: ADME, organism-based, Canis lupus familiaris; parameters: dose 1 mg/kg, route oral
Rhesus monkey [25] = experiment: Antidiabetic activity in obese type 2 diabetic rhesus monkey model assessed as inhibition of blood glucose excursion at 6 mg/kg, po administered 1 to 2 hrs prior to dextrose challenge measured for 120 mins by IVGTT relative to control; type: functional; details: Macaca mulatta
Canis familiaris = experiment: Volume of distribution in beagle dog at 1 mg/kg, po; type: ADME, organism-based, Canis lupus familiaris; parameters: dose 1 mg/kg, route oral; details: in vivo
Mus musculus [26] = experiment: Antidiabetic activity in high fat feasted ICR mouse assessed as inhibition of blood glucose excursion administered 15 mins prior to dextrose challenge measured for 120 mins by OGTT relative to control; type: functional
Mus musculus [27] = experiment: Antidiabetic activity in high fat feasted ICR mouse assessed as reduction of blood glucose excursion at 20 mg/kg, po administered 15 mins prior to dextrose challenge measured for 120 mins by OGTT; type: functional, organism-based; parameters: dose 20 mg/kg
Rhesus monkey [28] = experiment: Antidiabetic activity in obese type 2 diabetic rhesus monkey model assessed as inhibition of blood glucose excursion at 20 mg/kg, po administered 1 to 2 hrs prior to dextrose challenge measured for 120 mins by IVGTT relative to control; type: functional; details: Macaca mulatta
Rhesus monkey [29] = experiment: Antidiabetic activity in obese type 2 diabetic rhesus monkey model assessed as inhibition of blood glucose excursion at 20 mg/kg, po administered 1 to 2 hrs prior to dextrose challenge measured for 60 mins by IVGTT relative to control; type: functional; details: Macaca mulatta

T1 sequence (O14842 whole entry): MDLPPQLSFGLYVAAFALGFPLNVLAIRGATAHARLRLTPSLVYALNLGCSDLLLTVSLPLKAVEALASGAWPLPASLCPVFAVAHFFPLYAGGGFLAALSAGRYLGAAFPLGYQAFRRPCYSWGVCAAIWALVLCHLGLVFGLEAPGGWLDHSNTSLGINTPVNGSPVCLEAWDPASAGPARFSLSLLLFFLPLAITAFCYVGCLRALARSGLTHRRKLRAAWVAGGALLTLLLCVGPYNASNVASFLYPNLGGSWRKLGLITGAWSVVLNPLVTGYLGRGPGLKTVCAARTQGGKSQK
Sequence of Free fatty acid receptor 1 (Rattus norvegicus) (Q8K3T4 whole entry): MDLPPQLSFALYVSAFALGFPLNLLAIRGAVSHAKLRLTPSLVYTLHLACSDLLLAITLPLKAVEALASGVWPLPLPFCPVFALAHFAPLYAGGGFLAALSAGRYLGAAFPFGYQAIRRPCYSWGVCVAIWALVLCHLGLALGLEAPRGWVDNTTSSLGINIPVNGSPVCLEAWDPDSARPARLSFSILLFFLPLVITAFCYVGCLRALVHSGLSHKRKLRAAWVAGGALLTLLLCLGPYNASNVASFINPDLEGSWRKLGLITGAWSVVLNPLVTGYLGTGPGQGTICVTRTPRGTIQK
Sequence of Free fatty acid receptor 1 (Rattus norvegicus, UniProt Q8K3T4) (Q8K3T4 whole entry): as above

SMILES | Cmax [1] | CL/F [2] | Emax [3] | AUC [4] | Vd (Rattus norvegicus) | half-life [5] | Vd (Cynomolgus monkey) | EC50 [6] | Cmax [7] | AUC [8] | half-life [9] | half-life [10] | AUC [11] | Emax [12] | Cmax [13] | inhibition in vivo at 50 mg/kg (Mus musculus [14]) | CL/F [16] | EC50 [21] | also measured
O=C(O)C[C@@H]1COc2cc3c(cc21)OC[C@@H](c1cccc(C(F)(F)F)c1)O3 | 7700 ng/mL | 0.167 mL/min/kg | 99.5% | 427000 ng·h/mL | 0.23 L/kg | 19.1 h | 2.38 L/kg | 11.3 nM | 2580 ng/mL | 47400 ng·h/mL | 16.4 h | 16.1 h | 54700 ng·h/mL | 43.6% | 19400 ng/mL | 13.3% | 1.67 mL/min/kg | – | bioavailability [15]: 100%
O=C(O)C[C@@H]1COc2cc3c(cc21)OC[C@@H](c1cccc(Br)c1)O3 | 5360 ng/mL | 0.117 mL/min/kg | 120% | 530000 ng·h/mL | 0.25 L/kg | 26.4 h | 1.02 L/kg | 13.5 nM | 2270 ng/mL | 30600 ng·h/mL | 18 h | 26.8 h | 136000 ng·h/mL | 40% | 17800 ng/mL | 4.9% | 0.667 mL/min/kg | 77 nM | inhibition in vivo at 6 mg/kg (Rhesus monkey [17]): 32.1%; Activity [18]: inactive; logD [19]: < 3; Activity [20]: inactive; Activity [22]: inactive; IC50 [23]: > 50000 nM; CL/F [24]: 0.5 mL/min/kg; inhibition in vivo at 6 mg/kg (Rhesus monkey [25]): 24.4%; Vd (Canis familiaris): 0.93 L/kg
Cc1ccccc1-c1cccc([C@H]2COc3cc4c(cc3O2)OC[C@H]4CC(=O)O)c1 | – | – | 91% | – | – | – | – | 19.1 nM | – | – | – | – | – | – | – | – | – | – | inhibition (INH) (Mus musculus [26]): 9.7%
Cc1cc(OCCCS(C)(=O)=O)cc(C)c1-c1cccc(COc2ccc3c(c2)OC[C@H]3CC(=O)O)c1 | – | – | – | – | – | – | – | – | – | – | – | – | – | – | – | – | – | 93 nM | Activity (Mus musculus [27]): Active; inhibition in vivo at 20 mg/kg (Rhesus monkey [28]): 15%; inhibition in vivo at 20 mg/kg (Rhesus monkey [29]): 14.7%
